One block for each compound: values may come before it.
Test system: esterase from Pseudonocardia thermophila FERM BP-6275, homogeneously purified (Example 2)
Experiment: Effect of inhibitors on the purified esterase (remaining hydrolysis of racemic 6-aminochroman-3-acetic acid methyl ester)
Format: biochemical

- Relative activity (inhibitor 0.1 mM, pre-incubated 30° C. 30 min, pH 7.2, reaction 55° C. 30 min, 100% = activity without inhibitors): 102%
SMILES: OC(CS)C(O)CS (stereo not shown) [DTT]

SMILES: O=C(O)CN(CCN(CC(=O)O)CC(=O)O)CC(=O)O [EDTA]
- Relative activity (pH 7.2, 30 min, 5000 µM): 103

SMILES: O=S(=O)(F)Cc1ccccc1 [PMSF, phenylmethylsulfonyl fluoride]
- Relative activity (pH 7.2, 30 min, 100 µM): 84
- remaining enzyme activity (pH 7.2, 30 min, 100 µM): 85%

— US6303349A, “Esterase and methods for the production of optically active chroman compounds” (Mitsui Chemicals, Inc., priority 1997, dated 2001)
